In brackets after ≈: the same amount, converted by molar mass. Like-named read-outs stand apart in the source and are kept apart here. Positions of bridges follow the written chain, without caps; N, C: chain ends. Non-standard residues stand in square brackets, D forms with d. Residues, ends and D or L forms follow the SMILES beside them. *: point of attachment. Ethyl(2-butanoyloxy) = CCCC(=O)OCC*; Ethyl(2-propionyloxy) = CCC(=O)OCC*; Ethyl(2-OPiv) = CC(C)(C)C(=O)OCC*; Ethyl(2-OBz) = O=C(OCC*)c1ccccc1; Dab = NCC[C@H](N)C(=O)O; X2 = O=C(OCC*)C1CCCCC1; X12 = O=C(OCC*)C1CCC1; X1 = CCCCCC(=O)OCC*; X13 = CCCCC(=O)OCC*; Mpa = O=C(O)CCS
Assays:
[1] = system: K. pneumoniae ATCC MS6671; assay type: cell-based, Klebsiella pneumoniae
Text: (§1) All 81 compounds prepared in Examples 2 and 3 underwent screening against a panel of Gram-negative bacterium to assess their ability to inhibit bacterial growth. […] The median value is presented.

K. pneumoniae ATCC 33495 = assay type: cell-based, Klebsiella pneumoniae
Text: as §1

[2] = system: K. pneumoniae ATCC 700603; assay type: cell-based, Klebsiella pneumoniae
Text: as §1

A. baumannii ATCC 19606 = assay type: cell-based, Acinetobacter baumannii
Text: as §1

P. aeruginosa ATCC 27853 = assay type: cell-based, Pseudomonas aeruginosa
Text: as §1

[3] = system: kidney organoids derived from human induced pluripotent stem cells; experiment: Nephrotoxicity on kidney organoids, renal tubule deterioration by bright field imaging; assay type: cell-based; details: scored after 48 h; also: key: 1 = unaffected; 2 = mild deterioration; 3 = severe deterioration; 4 = complete deterioration
Method: Selected polymyxin analogues were evaluated for cytotoxicity in physiologically relevant human kidney tissue, using kidney organoids derived from human induced pluripotent stem cells (Soo et al. 2018). Monolipidated analogues 29, 31, 33, containing a propyl, decyl or phenyl lipid, dilapidated compounds, 35, 38, 39, containing a propyl, tert-butyl or phenyl, lipid, respectively and the N-capped, di-lipidated (phenyl) 49 were selected.
The control compound polymyxin B and the seven ClipPA analogues were tested by adding a range of concentrations (based on Gallado-Godoy et al. 2016) to the organoids at day 12 of the protocol, shown previously to correspond to optimal maturity of the organoid tissues.
Toxicity was scored after 48 h for signs of renal tubule deterioration visible by bright field imaging (not shown).

E. coli ATCC MS8345 = assay type: cell-based, Escherichia coli
Text: as §1
Expansion of the polymyxin macrocycle by substituting […]) offered little advantage in antimicrobial activity but was generally well tolerated although for A. baumanni and P. aeruginosa this was detrimental.

E. coli ATCC 25922 = assay type: cell-based, Escherichia coli
Text: as §1

[4] = colistin-resistant strain, median of triplicate

SMILES | MIC K. pneumoniae ATCC MS6671 ([1]; ATCC MS6671) [µg/mL] | MIC K. pneumoniae ATCC 33495 (K. pneumoniae ATCC 33495; ATCC 33495) [µg/mL] | MIC K. pneumoniae ATCC 700603 ([2]; ATCC 700603) [µg/mL] | MIC A. baumannii ATCC 19606 (A. baumannii ATCC 19606; ATCC 19606) [µg/mL] | MIC P. aeruginosa ATCC 27853 (P. aeruginosa ATCC 27853; ATCC 27853) [µg/mL] | MIC E. coli ATCC MS8345 (E. coli ATCC MS8345; ATCC MS8345) [µg/mL] | MIC E. coli ATCC 25922 (E. coli ATCC 25922; ATCC 25922) [µg/mL] | MIC K. pneumoniae ATCC MS6671 ([1]; median of triplicate) [µg/mL] | MIC K. pneumoniae ATCC 33495 (K. pneumoniae ATCC 33495; median of triplicate) [µg/mL] | MIC K. pneumoniae ATCC 700603 ([2]; median of triplicate) [µg/mL] | MIC A. baumannii ATCC 19606 (A. baumannii ATCC 19606; median of triplicate) [µg/mL] | MIC P. aeruginosa ATCC 27853 (P. aeruginosa ATCC 27853; median of triplicate) [µg/mL] | Score (nephrotoxicity on kidney organoids) ([3]; 100 μM) | Score (nephrotoxicity on kidney organoids) ([3]; 300 μM) | Score (nephrotoxicity on kidney organoids) ([3]; 1 mM) | MIC E. coli ATCC MS8345 (E. coli ATCC MS8345; [4]) [µg/mL] | MIC E. coli ATCC 25922 (E. coli ATCC 25922; median of triplicate) [µg/mL]
C[C@@H](O)[C@@H]1NC(=O)[C@H](CCN)NC(=O)[C@H](CCN)NC(=O)[C@H](CSCCOC(=O)C(C)(C)C)NC(=O)[C@@H](Cc2ccccc2)NC(=O)[C@H](CCN)NC(=O)[C@@H](NC(=O)[C@H](CCN)NC(=O)[C@@H](NC(=O)[C@H](CCN)NC(=O)[C@@H](N)CSCCOC(=O)c2ccccc2)[C@@H](C)O)CCNC1=O [Compound 48] (H-C(Ethyl(2-OBz))[Dab]T[Dab][Dab][Dab][dF]C(Ethyl(2-OPiv))[Dab][Dab]T; lactam 5-C) |  |  |  |  |  |  |  | >32 | 2 to 4 | 4 (≈ 2.79 µM) | 32 (≈ 22.3 µM) | 2 (≈ 1.4 µM) | 1 | 2 | 4 | >32 | 2 (≈ 1.4 µM)
CCC(=O)OCCSC[C@@H]1NC(=O)[C@@H](Cc2ccccc2)NC(=O)[C@H](CCN)NC(=O)[C@@H](NC(=O)[C@H](CCN)NC(=O)[C@@H](NC(=O)[C@H](CCN)NC(=O)[C@@H](N)CSCCOC(=O)C(C)(C)C)[C@@H](C)O)CCNC(=O)[C@H]([C@@H](C)O)NC(=O)[C@H](CCN)NC(=O)[C@H](CCN)NC1=O [Compound 45] (H-C(Ethyl(2-OPiv))[Dab]T[Dab][Dab][Dab][dF]C(Ethyl(2-propionyloxy))[Dab][Dab]T; lactam 5-C) | >32 | 0.25 to 0.5 | 0.25 to 0.5 | 2 to 4 | 16 (≈ 11.6 µM) | 16 to 32 | 0.25 (≈ 0.181 µM) |  |  |  |  |  |  |  |  |  | 
C[C@@H](O)[C@@H]1NC(=O)[C@H](CCN)NC(=O)[C@H](CCN)NC(=O)[C@H](CSCCOC(=O)c2ccccc2)NC(=O)[C@@H](Cc2ccccc2)NC(=O)[C@H](CCN)NC(=O)[C@@H](NC(=O)[C@H](CCN)NC(=O)[C@@H](NC(=O)[C@H](CCN)NC(=O)[C@@H](N)CSCCOC(=O)C(C)(C)C)[C@@H](C)O)CCNC1=O [Compound 46] (H-C(Ethyl(2-OPiv))[Dab]T[Dab][Dab][Dab][dF]C(Ethyl(2-OBz))[Dab][Dab]T; lactam 5-C) |  |  |  |  |  |  |  | >32 | 2 (≈ 1.4 µM) | 1 to 2 | 16 (≈ 11.2 µM) | 16 (≈ 11.2 µM) | 1 | 3 | 4 |  | 2 to 4
CC(C)C[C@@H]1NC(=O)[C@@H](Cc2ccccc2)NC(=O)[C@H](CCN)NC(=O)[C@@H](NC(=O)[C@H](CCN)NC(=O)[C@@H](NC(=O)[C@H](CCN)NC(=O)[C@@H](N)CSCCOC(=O)c2ccccc2)[C@@H](C)O)CCCCNC(=O)[C@H]([C@@H](C)O)NC(=O)[C@H](CCN)NC(=O)[C@H](CCN)NC1=O [Compound 27] (H-C(Ethyl(2-OBz))[Dab]T[Dab]K[Dab][dF]L[Dab][Dab]T; lactam 5-C) |  |  |  |  |  |  |  | >32 | 0.5 (≈ 0.372 µM) | 2 to 4 | >32 | >32 |  |  |  | >32 | 1 (≈ 0.745 µM)
CC(C)C[C@@H]1NC(=O)[C@@H](Cc2ccccc2)NC(=O)[C@H](CCN)NC(=O)[C@@H](NC(=O)[C@H](CCN)NC(=O)[C@@H](NC(=O)[C@H](CCN)NC(=O)[C@@H](N)CSCCOC(=O)C(C)(C)C)[C@@H](C)O)CCCCNC(=O)[C@H]([C@@H](C)O)NC(=O)[C@H](CCN)NC(=O)[C@H](CCN)NC1=O [Compound 26] (H-C(Ethyl(2-OPiv))[Dab]T[Dab]K[Dab][dF]L[Dab][Dab]T; lactam 5-C) | >32 | 0.5 (≈ 0.378 µM) | 16 (≈ 12.1 µM) | >32 | >32 | >32 | 1 (≈ 0.756 µM) |  |  |  |  |  |  |  |  |  | 
CCCC(=O)OCCSC[C@@H]1NC(=O)[C@@H](Cc2ccccc2)NC(=O)[C@H](CCN)NC(=O)[C@@H](NC(=O)[C@H](CCN)NC(=O)[C@@H](NC(=O)[C@H](CCN)NC(=O)[C@@H](N)CSCCOC(=O)CCC)[C@@H](C)O)CCNC(=O)[C@H]([C@@H](C)O)NC(=O)[C@H](CCN)NC(=O)[C@H](CCN)NC1=O [Compound 36] (H-C(Ethyl(2-butanoyloxy))[Dab]T[Dab][Dab][Dab][dF]C(Ethyl(2-butanoyloxy))[Dab][Dab]T; lactam 5-C) | >32 | 0.25 to 0.5 | 0.25 to 0.5 | 16 (≈ 11.6 µM) | 16 (≈ 11.6 µM) | 32 (≈ 23.1 µM) | 0.25 (≈ 0.181 µM) |  |  |  |  |  |  |  |  |  | 

Continued, in another order:

MIC K. pneumoniae ATCC MS6671 ([1]; ATCC MS6671) [µg/mL] | MIC K. pneumoniae ATCC 33495 (K. pneumoniae ATCC 33495; ATCC 33495) [µg/mL] | MIC K. pneumoniae ATCC 700603 ([2]; ATCC 700603) [µg/mL] | MIC A. baumannii ATCC 19606 (A. baumannii ATCC 19606; ATCC 19606) [µg/mL] | MIC P. aeruginosa ATCC 27853 (P. aeruginosa ATCC 27853; ATCC 27853) [µg/mL] | MIC E. coli ATCC MS8345 (E. coli ATCC MS8345; ATCC MS8345) [µg/mL] | MIC E. coli ATCC 25922 (E. coli ATCC 25922; ATCC 25922) [µg/mL] | SMILES | MIC K. pneumoniae ATCC MS6671 ([1]; median of triplicate) [µg/mL] | MIC K. pneumoniae ATCC 33495 (K. pneumoniae ATCC 33495; median of triplicate) [µg/mL] | MIC K. pneumoniae ATCC 700603 ([2]; median of triplicate) [µg/mL] | MIC A. baumannii ATCC 19606 (A. baumannii ATCC 19606; median of triplicate) [µg/mL] | MIC P. aeruginosa ATCC 27853 (P. aeruginosa ATCC 27853; median of triplicate) [µg/mL] | Score (nephrotoxicity on kidney organoids) ([3]; 100 μM) | Score (nephrotoxicity on kidney organoids) ([3]; 300 μM) | Score (nephrotoxicity on kidney organoids) ([3]; 1 mM) | MIC E. coli ATCC MS8345 (E. coli ATCC MS8345; [4]) [µg/mL] | MIC E. coli ATCC 25922 (E. coli ATCC 25922; median of triplicate) [µg/mL]
>32 | 0.5 (≈ 0.4 µM) | 1 (≈ 0.799 µM) | 32 (≈ 25.6 µM) | 2 (≈ 1.6 µM) | >32 | 0.5 (≈ 0.4 µM) | CCC(=O)OCCSCCC(=O)N[C@@H](CCN)C(=O)N[C@H](C(=O)N[C@@H](CCN)C(=O)N[C@H]1CCNC(=O)[C@H]([C@@H](C)O)NC(=O)[C@H](CCN)NC(=O)[C@H](CCN)NC(=O)[C@H](CC(C)C)NC(=O)[C@@H](Cc2ccccc2)NC(=O)[C@H](CCN)NC1=O)[C@@H](C)O [Compound 59] ([Mpa](Ethyl(2-propionyloxy))[Dab]T[Dab][Dab][Dab][dF]L[Dab][Dab]T; lactam 5-C) |  |  |  |  |  |  |  |  |  | 
>32 | 1 (≈ 0.827 µM) | 2 (≈ 1.65 µM) | 4 (≈ 3.31 µM) | 2 (≈ 1.65 µM) | 16 (≈ 13.2 µM) | 1 (≈ 0.827 µM) | CCCCCC(=O)OCCSC[C@@H](N)C(=O)N[C@H](C(=O)N[C@@H](CCN)C(=O)N[C@H]1CCNC(=O)[C@H]([C@@H](C)O)NC(=O)[C@H](CCN)NC(=O)[C@H](CCN)NC(=O)[C@H](CC(C)C)NC(=O)[C@@H](Cc2ccccc2)NC(=O)[C@H](CCN)NC1=O)[C@@H](C)O [Compound 91] (H-[dC](X1)T[Dab][Dab][Dab][dF]L[Dab][Dab]T; lactam 4-C) |  |  |  |  |  |  |  |  |  | 
>32 | 2 (≈ 1.64 µM) | 2 (≈ 1.64 µM) | 4 (≈ 3.28 µM) | 2 (≈ 1.64 µM) | 16 (≈ 13.1 µM) | 2 (≈ 1.64 µM) | CC(C)C[C@@H]1NC(=O)[C@@H](Cc2ccccc2)NC(=O)[C@H](CCN)NC(=O)[C@@H](NC(=O)[C@H](CCN)NC(=O)[C@@H](NC(=O)[C@H](N)CSCCOC(=O)C2CCCCC2)[C@@H](C)O)CCNC(=O)[C@H]([C@@H](C)O)NC(=O)[C@H](CCN)NC(=O)[C@H](CCN)NC1=O [Compound 103] (H-[dC](X2)T[Dab][Dab][Dab][dF]L[Dab][Dab]T; lactam 4-C) |  |  |  |  |  |  |  |  |  | 
>32 | 2 (≈ 1.67 µM) | 4 (≈ 3.35 µM) | >16 | 4 (≈ 3.35 µM) | >32 | 4 (≈ 3.35 µM) | CCCCC(=O)OCCSC[C@@H](N)C(=O)N[C@H](C(=O)N[C@@H](CCN)C(=O)N[C@H]1CCNC(=O)[C@H]([C@@H](C)O)NC(=O)[C@H](CCN)NC(=O)[C@H](CCN)NC(=O)[C@H](CC(C)C)NC(=O)[C@@H](Cc2ccccc2)NC(=O)[C@H](CCN)NC1=O)[C@@H](C)O [Compound 90] (H-[dC](X13)T[Dab][Dab][Dab][dF]L[Dab][Dab]T; lactam 4-C) |  |  |  |  |  |  |  |  |  | 
>32 | 1 (≈ 0.839 µM) | 2 (≈ 1.68 µM) | 4 (≈ 3.35 µM) | 2 (≈ 1.68 µM) | >32 | 1 (≈ 0.839 µM) | CC(C)C[C@@H]1NC(=O)[C@@H](Cc2ccccc2)NC(=O)[C@H](CCN)NC(=O)[C@@H](NC(=O)[C@H](CCN)NC(=O)[C@@H](NC(=O)[C@H](N)CSCCOC(=O)C2CCC2)[C@@H](C)O)CCNC(=O)[C@H]([C@@H](C)O)NC(=O)[C@H](CCN)NC(=O)[C@H](CCN)NC1=O [Compound 101] (H-[dC](X12)T[Dab][Dab][Dab][dF]L[Dab][Dab]T; lactam 4-C) |  |  |  |  |  |  |  |  |  | 
